Test system: SW 1271 complex spheroids, viability
Assay: Anticancer human tumor SW 1271 cell line growth inhibition [LSD1];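 also: spheroids exposed to agents for 7 days before luminescence read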;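 as to viability, T/C: 100% = DMSO vehicle control viability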
Settings: for IC50: curve of first compound; for viability, T/C: stronger effect = lower value
Method in brief: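 Drug combinations with the LSD1 inhibitor iadademstat tested on tumor cells co-cultured as spheroids with endothelial cells and mesenchymal stem cells. Concentrations descended in half-log increments from clinical Cmax or 10 microM.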

Molecule CC[C@@]1(O)C(=O)OCc2c1cc1n(c2=O)Cc2cc3c(CN(C)C)c(O)ccc3nc2-1 + NC1CC1c1ccc(-c2cccc(O)c2)cc1 has an IC50 (second compound 0.1 µM) of 0.0526 µM, an IC50 (second compound 0.316 µM) of 0.0446 µM and an IC50 (second compound 1 µM) of 0.0278 µM. It also gave an IC50 (second compound 3.16 µM) of over 0.1 µM, an IC50 (second compound 10 µM) of 0.057 µM and a viability, T/C (second compound 0.1 µM, first compound 0.000316 µM) of 93.2%. It also gave a viability, T/C (second compound 0.1 µM, first compound 0.001 µM) of 81.3%, a viability, T/C (second compound 0.1 µM, first compound 0.00316 µM) of 72.5% and a viability, T/C (second compound 0.1 µM, first compound 0.01 µM) of 63.6%. The viability, T/C (second compound 0.1 µM, first compound 0.0316 µM) was 55.9%, the viability, T/C (second compound 0.1 µM, first compound 0.1 µM) was 43.5% and the viability, T/C (second compound 0.316 µM, first compound 0.000316 µM) was 83%. The viability, T/C (second compound 0.316 µM, first compound 0.001 µM) was 79.4%, the viability, T/C (second compound 0.316 µM, first compound 0.00316 µM) was 77.4% and the viability, T/C (second compound 0.316 µM, first compound 0.01 µM) was 63.6%. For the same molecule, the viability, T/C (second compound 0.316 µM, first compound 0.0316 µM) was 54.7%, the viability, T/C (second compound 0.316 µM, first compound 0.1 µM) was 41.6% and the viability, T/C (second compound 1 µM, first compound 0.000316 µM) was 76.6%. The viability, T/C (second compound 1 µM, first compound 0.001 µM) was 79.5%, the viability, T/C (second compound 1 µM, first compound 0.00316 µM) was 69.1% and the viability, T/C (second compound 1 µM, first compound 0.01 µM) was 53.4%. It also gave a viability, T/C (second compound 1 µM, first compound 0.0316 µM) of 52.4%, a viability, T/C (second compound 1 µM, first compound 0.1 µM) of 46.5% and a viability, T/C (second compound 3.16 µM, first compound 0.000316 µM) of 84.9%. It also gave a viability, T/C (second compound 3.16 µM, first compound 0.001 µM) of 75.5%, a viability, T/C (second compound 3.16 µM, first compound 0.00316 µM) of 66% and a viability, T/C (second compound 3.16 µM, first compound 0.01 µM) of 59.2%. For the same molecule, the viability, T/C (second compound 3.16 µM, first compound 0.0316 µM) was 54.3%, the viability, T/C (second compound 3.16 µM, first compound 0.1 µM) was 50.5% and the viability, T/C (second compound 10 µM, first compound 0.000316 µM) was 74.7%. For the same molecule, the viability, T/C (second compound 10 µM, first compound 0.001 µM) was 78.9%, the viability, T/C (second compound 10 µM, first compound 0.00316 µM) was 62.1% and the viability, T/C (second compound 10 µM, first compound 0.01 µM) was 58.2%. For the same molecule, the viability, T/C (second compound 10 µM, first compound 0.0316 µM) was 54.1% and the viability, T/C (second compound 10 µM, first compound 0.1 µM) was 47.3%.
